Active and inactive are the calls of the source.
Tests used:
[1] = target: T1, Glucocorticoid receptor (Homo sapiens) (UniProt P04150); test: Agonist activity at human Glucocorticoid receptor expressed in human HeLa cells assessed as DHT-induced response after 40 hrs by luciferase/beta-galactosidase-based reporter gene assay; format: functional, cell-based
T1 sequence (whole entry): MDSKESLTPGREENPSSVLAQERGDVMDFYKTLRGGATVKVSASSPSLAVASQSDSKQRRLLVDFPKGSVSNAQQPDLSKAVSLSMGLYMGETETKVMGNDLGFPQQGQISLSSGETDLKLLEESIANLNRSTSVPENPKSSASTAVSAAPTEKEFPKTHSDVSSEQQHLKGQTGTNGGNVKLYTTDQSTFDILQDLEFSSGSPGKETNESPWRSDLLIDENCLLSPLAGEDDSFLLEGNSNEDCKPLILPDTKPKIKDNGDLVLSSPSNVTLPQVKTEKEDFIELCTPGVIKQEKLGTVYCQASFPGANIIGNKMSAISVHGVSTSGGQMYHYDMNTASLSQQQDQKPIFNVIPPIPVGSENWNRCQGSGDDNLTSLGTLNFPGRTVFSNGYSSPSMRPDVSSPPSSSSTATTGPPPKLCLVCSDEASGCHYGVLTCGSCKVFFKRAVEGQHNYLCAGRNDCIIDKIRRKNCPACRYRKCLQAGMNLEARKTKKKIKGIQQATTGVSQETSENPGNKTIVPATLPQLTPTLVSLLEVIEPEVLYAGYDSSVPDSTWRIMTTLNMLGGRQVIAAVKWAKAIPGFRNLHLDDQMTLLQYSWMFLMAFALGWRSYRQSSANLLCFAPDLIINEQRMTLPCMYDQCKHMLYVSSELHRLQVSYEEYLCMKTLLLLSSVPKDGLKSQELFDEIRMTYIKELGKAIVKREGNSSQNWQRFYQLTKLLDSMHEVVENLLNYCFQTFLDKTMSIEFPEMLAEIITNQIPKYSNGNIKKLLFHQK

[2] = target: T2, 17-beta-hydroxysteroid dehydrogenase type 1 (Homo sapiens) (UniProt P14061); test: Inhibition of human recombinant 17-beta-HSD1 expressed in human HeLa cells using estrone as substrate preincubated for 30 mins prior substrate addition measured after 120 mins by spectrophotometry; format: cell-based
T2 sequence (whole entry): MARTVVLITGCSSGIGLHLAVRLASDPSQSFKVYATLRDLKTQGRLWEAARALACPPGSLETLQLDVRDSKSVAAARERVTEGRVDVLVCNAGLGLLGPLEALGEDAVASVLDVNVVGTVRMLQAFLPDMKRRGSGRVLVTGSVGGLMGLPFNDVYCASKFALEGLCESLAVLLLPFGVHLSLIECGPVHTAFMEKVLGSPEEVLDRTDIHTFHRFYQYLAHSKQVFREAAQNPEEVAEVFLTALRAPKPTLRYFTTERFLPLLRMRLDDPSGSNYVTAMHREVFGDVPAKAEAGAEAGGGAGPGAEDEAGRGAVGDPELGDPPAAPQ

[3] = target: T3, Androgen receptor (Homo sapiens) (UniProt P10275); test: Antagonist activity at human androgen receptor expressed in human HeLa cells assessed as inhibition of DHT-induced response after 40 hrs by luciferase/beta-galactosidase-based reporter gene assay; format: functional, cell-based
T3 sequence (whole entry): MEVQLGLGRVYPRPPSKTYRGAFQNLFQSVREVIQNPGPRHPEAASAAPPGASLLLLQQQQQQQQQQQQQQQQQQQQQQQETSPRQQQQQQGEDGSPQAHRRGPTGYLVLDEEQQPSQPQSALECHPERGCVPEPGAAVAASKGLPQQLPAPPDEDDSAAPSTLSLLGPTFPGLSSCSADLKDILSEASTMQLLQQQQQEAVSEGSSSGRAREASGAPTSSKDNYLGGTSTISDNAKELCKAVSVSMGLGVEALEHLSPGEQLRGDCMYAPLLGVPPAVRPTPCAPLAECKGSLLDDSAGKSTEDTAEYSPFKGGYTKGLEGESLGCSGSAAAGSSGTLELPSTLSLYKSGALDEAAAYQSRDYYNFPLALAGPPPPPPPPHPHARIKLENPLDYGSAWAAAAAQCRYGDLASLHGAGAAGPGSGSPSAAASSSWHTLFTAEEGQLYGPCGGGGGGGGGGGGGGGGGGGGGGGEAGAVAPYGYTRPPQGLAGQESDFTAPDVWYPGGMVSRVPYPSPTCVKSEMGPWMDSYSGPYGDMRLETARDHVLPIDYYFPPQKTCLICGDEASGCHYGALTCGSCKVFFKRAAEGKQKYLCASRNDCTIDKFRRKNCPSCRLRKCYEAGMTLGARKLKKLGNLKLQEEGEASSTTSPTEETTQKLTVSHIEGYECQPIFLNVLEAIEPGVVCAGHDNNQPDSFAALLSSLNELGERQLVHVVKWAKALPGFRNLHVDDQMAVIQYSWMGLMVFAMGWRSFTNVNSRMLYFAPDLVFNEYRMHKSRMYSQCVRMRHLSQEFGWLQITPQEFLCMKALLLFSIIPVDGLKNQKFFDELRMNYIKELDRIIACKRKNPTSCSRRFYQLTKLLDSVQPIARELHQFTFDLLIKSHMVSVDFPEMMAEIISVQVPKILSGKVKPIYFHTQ

[4] = target: T1, Glucocorticoid receptor (Homo sapiens); test: Antagonist activity at human GR receptor expressed in human HeLa cells assessed as inhibition of DHT-induced response after 40 hrs by luciferase/beta-galactosidase-based reporter gene assay; format: functional, cell-based
[5] = target: T4, Estrogen receptor (Homo sapiens) (UniProt P03372); test: Antagonist activity at human ERalpha receptor expressed in human HeLa cells assessed as inhibition of DHT-induced response after 40 hrs by luciferase/beta-galactosidase-based reporter gene assay; format: functional, cell-based
T4 sequence (whole entry): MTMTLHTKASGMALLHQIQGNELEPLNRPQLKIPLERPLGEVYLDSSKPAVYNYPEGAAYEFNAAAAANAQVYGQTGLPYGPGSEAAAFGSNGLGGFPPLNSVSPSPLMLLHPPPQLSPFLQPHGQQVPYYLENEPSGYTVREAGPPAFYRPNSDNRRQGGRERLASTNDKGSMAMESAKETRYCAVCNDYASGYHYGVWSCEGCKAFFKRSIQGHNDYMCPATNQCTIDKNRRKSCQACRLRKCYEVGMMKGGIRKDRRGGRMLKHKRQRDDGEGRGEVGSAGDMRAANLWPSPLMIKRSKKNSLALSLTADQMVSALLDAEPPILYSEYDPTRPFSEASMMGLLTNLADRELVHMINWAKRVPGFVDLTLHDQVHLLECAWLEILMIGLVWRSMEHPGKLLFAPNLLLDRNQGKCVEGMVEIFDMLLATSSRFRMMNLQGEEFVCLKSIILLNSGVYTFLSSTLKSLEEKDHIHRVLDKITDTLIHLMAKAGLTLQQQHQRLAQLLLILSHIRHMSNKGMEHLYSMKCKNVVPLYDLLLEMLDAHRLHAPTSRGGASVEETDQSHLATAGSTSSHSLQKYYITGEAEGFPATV

[6] = target: T3, Androgen receptor (Homo sapiens); test: Agonist activity at human androgen receptor expressed in human HeLa cells assessed as DHT-induced response after 40 hrs by luciferase/beta-galactosidase-based reporter gene assay; format: functional, cell-based

COc1ccc(N2C(=O)/C(=C/c3cc(Cl)c(OP(=O)(O)O)c(Cl)c3)OC2=S)cc1
inactive: Activity [1] | inhibition [2] | Activity [3] | Activity [4] | Activity [5] | Activity [6]

COc1ccc(N2C(=O)/C(=C/c3cc(Cl)c(O)c(Cl)c3)OC2=S)cc1
inactive: Activity [1] | inhibition [2] | Activity [3] | Activity [4] | Activity [5] | Activity [6]
